Earlier results on one molecule are cited in PMC4333608 (Chemical Science, 2014).

In the data set the target is T1, São Paulo metallo-β-lactamase-1 (SPM-1) (Pseudomonas aeruginosa, UniProt Q8G9Q0).
T1 sequence (Q8G9Q0 29-276): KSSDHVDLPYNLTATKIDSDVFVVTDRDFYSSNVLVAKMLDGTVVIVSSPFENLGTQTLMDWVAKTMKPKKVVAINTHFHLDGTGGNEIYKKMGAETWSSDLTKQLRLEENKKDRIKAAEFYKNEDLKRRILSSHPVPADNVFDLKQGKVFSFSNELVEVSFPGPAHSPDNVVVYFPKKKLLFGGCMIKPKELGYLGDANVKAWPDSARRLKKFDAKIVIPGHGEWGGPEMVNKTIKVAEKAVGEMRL
As to the kind of experiment: enzyme inhibition IC50. The format is biochemical.

Turning to `O=C(O)c1cc(CS)cc(CS)c1` [3,5-bis(mercaptomethyl)benzoic acid], the IC50 was 700 nM.
